According to patent publication US6294580A, “Substituted 4-hydroxy-phenylalcanoic acid derivatives with agonist activity to PPAR-gamma” (Glaxo Wellcome Inc., priority 1996, dated 2001):
pEC50, pKi: −log10 of the molar value. Counter-ions that a name gives are not always drawn. Like-named read-outs stand apart in the source and are kept apart here.

Tests used:
[1] = test system: PPARg; test: PPARgamma Transient Cotransfection Assay; assay type: cell-based; conditions: CAT reporter; for pEC50: read-out: PPARg EC50
[2] = target: T1, hPPARgamma (Homo sapiens, UniProt P37231); test: hPPARgamma Ligand Binding Assay; conditions: competition with [3H]-BRL 49,653, room temperature 2 hrs
T1 construct: 10x-histidine tag (N); made in house; host or cells: E. coli
T1 sequence (P37231 195-475 isoform P37231-2): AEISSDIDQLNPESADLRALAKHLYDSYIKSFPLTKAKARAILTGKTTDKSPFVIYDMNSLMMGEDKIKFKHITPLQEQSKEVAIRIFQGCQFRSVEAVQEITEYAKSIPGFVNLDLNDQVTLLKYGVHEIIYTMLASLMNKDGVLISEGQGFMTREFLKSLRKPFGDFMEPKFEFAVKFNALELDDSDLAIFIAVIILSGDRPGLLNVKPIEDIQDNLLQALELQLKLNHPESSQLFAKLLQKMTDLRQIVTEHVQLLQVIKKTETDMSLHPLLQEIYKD

`O=C(c1ccccc1)c1ccsc1NC(Cc1ccc(OCc2ccccc2)cc1)C(=O)O` (centres unmarked) [Example 8, 2-(3-Benzoyl-thiophen-2-yl-amino)-3-(4-benzyloxy-phenyl)-propionic acid] was tested, and the pEC50 [1] was 6.14 and the pKi ([2]; PPARg Ki) was 7.68.

With `CN(CCOc1ccc(CC(Nc2ccsc2C(=O)c2ccccc2)C(=O)O)cc1)c1nc2ccccc2o1` (centres unmarked) [Example 25] the pEC50 [1] was 9.00 and the pKi ([2]; PPARg Ki) was 7.15.

In the case of `CN(CCOc1ccc(CC(Nc2ccccc2C(=O)c2ccccc2)C(=O)O)cc1)c1nc2ccccc2o1` (centres unmarked) [Example 15, 3-{4-[2-(benzoxazol-2-yl-methyl-amino)-ethoxy]-phenyl}-2-(2-benzoyl-phenylamino)-propionic acid], the pEC50 [1] was 9.00 and the pKi ([2]; PPARg Ki) was 7.40.

`O=C(c1ccccc1)c1ccccc1NC(Cc1ccc(OCCc2cccnc2)cc1)C(=O)O` (centres unmarked) [Example 123, 2-(2-Benzoyl-phenylamino)-3-[4-(2-pyridin-3-yl-ethoxy]-phenyl]-propionic acid] was tested, and the pEC50 [1] was 6.21 and the pKi ([2]; PPARg Ki) was 6.55.

`CC(=CC(=O)c1cccc(I)c1)N[C@@H](Cc1ccc(OCCN(C)c2nc3ccccc3o2)cc1)C(=O)O` [Example 18, 3-{4-[2-(Benzoxazol-2-yl-methyl-amino)-ethoxy]-phenyl}-2(S)-[3-(3-iodo-phenyl)-1-methyl-3-oxo-propenylamino]-propionic acid dicyclohexylamine salt] showed a pEC50 [1] of 8.30 and a pKi ([2]; PPARg Ki) of 8.00.

For `COC(=O)c1ccccc1N[C@@H](Cc1ccc(OCCOc2ccc([N+](=O)[O-])cn2)cc1)C(=O)O` [Example 69], the pEC50 [1] was 7.00 and the pKi ([2]; read-out: PPARg Ki) was 6.54.

Compound `Cc1oc(-c2ccccc2)nc1CCOc1ccc(CC(Nc2ccccc2C(=O)c2cccc(N)c2)C(=O)O)cc1` (centres unmarked) [Example 94, 2-[2-(3-amino-benzoyl)-phenylamino]-3-{4-[2-(5-methyl-2-phenyl-oxazol-4-yl)-ethoxy]-phenyl}-propionic acid] has a pEC50 [1] of 8.00 and a pKi ([2]; PPARg Ki) of 7.40.

`COC(=O)c1ccccc1N[C@@H](Cc1ccc(OCCc2nc(N3CCN(C)CC3)sc2C)cc1)C(=O)O` [Example 105] showed a pEC50 [1] of 7.46 and a pKi ([2]; read-out: PPARg Ki) of 6.85.

`Cc1oc(-c2ccccc2)nc1CCOc1ccc(C[C@H](Nc2ccccc2C(=O)NCCN)C(=O)O)cc1` [Example 89, 2-(S)-(1-carboxy-2-{4-{2-(5-methyl-2-phenyl-oxazol-4-yl)-ethoxy]-phenyl}-ethylamino)-benzoic acid 2-aminoethyl amide hydrochloride] gave a pEC50 [1] of 7.22 and a pKi ([2]; PPARg Ki) of 5.52.

In the case of `Cc1oc(-c2ccccc2)nc1CCOc1ccc(C[C@H](Nc2ccccc2C(=O)c2ccncc2)C(=O)O)cc1` [Example 56, 3-{4-[2-(5-Methyl-2-phenyl-oxazol-4-yl)-ethoxy]-phenyl}-2(S)-[2-(pyridine-4-carbonyl)-phenylamino]-propionic acid], the pEC50 [1] was 9.00 and the pKi ([2]; PPARg Ki) was 8.00.

Compound `Cc1oc(-c2ccccc2)nc1CCOc1ccc(CC(Nc2ccccc2C(=O)C2CCCCC2)C(=O)O)cc1` (single isomer, unassigned) [Example 54, 2-(2-Cyclohexanecarbonyl-phenylamino)-3-{4-[2-(5-methyl-2-phenyl-oxazol-4-yl)-ethoxy]-phenyl}-propionic acid] has a pEC50 [1] of 6.60 and a pKi ([2]; PPARg Ki) of 5.52.

Work on `Cc1oc(-c2ccccc2)nc1CCOc1ccc(CC(Nc2ccccc2C(=O)c2cccc(NS(C)(=O)=O)c2)C(=O)O)cc1` (centres unmarked) [Example 95, 2-[2-(3-methanesulfonylamino-benzoyl)-phenylamino]-3-{4-[2-(5-methyl-2-phenyl-oxazol-4-yl)-ethoxy]-phenyl}-propionic acid] yielded a pEC50 [1] of 6.15 and a pKi ([2]; PPARg Ki) of 6.42.

`COc1ccccc1C(=O)c1ccccc1NC(Cc1ccc(OCCN(C)c2nc3ccccc3o2)cc1)C(=O)O` (centres unmarked) [Example 79] was tested, and the pEC50 [1] was 7.52 and the pKi ([2]; PPARg Ki) was 7.30.

`COc1cccc(C(=O)c2ccccc2NC(Cc2ccc(OCCN(C)c3nc4ccccc4o3)cc2)C(=O)O)c1` (centres unmarked) [Example 78] gave a pEC50 [1] of 6.70 and a pKi ([2]; PPARg Ki) of 7.40.

`O=C(c1ccccc1)c1sccc1NC(Cc1ccc(OCc2ccccc2)cc1)C(=O)O` (centres unmarked) [Example 9, 2-(2-Benzoyl-thiophen-3-yl-amino)-3-(4-benzyloxy-phenyl)-propionic acid] gave a pEC50 [1] of 6.20 and a pKi ([2]; PPARg Ki) of 6.15.

`Cc1nnsc1-c1nc(CCOc2ccc(C[C@H](Nc3ccccc3C(=O)c3ccccc3)C(=O)O)cc2)c(C)s1` [Example 41, 2(S)-(2-benzoyl-phenylamino)-3-(4-{2-[5-methyl-2-(4-methyl[1,2,3]thiadiazol-5-yl)-thiazol-4-yl]ethoxy}-phenyl)-propionic acid] showed a pEC50 [1] of 8.30 and a pKi ([2]; PPARg Ki) of 7.15.

With `COC(=O)C(Cc1ccc(OCc2ccccc2)cc1)Nc1ccccc1C(=O)OCc1ccccc1` (centres unmarked) [Example 5] the “PPARg Fold. Act.” value [1] was 10, the pEC50 [1] was 5.05 and the pKi ([2]; PPARg Ki) was < 5.52.

Compound `O=C(c1ccccc1)c1ccccc1NC(Cc1ccc(OC[C@H]2CCCN2c2nc3ccccc3o2)cc1)C(=O)O` (some centres unmarked) [Example 22] has a pEC50 [1] of 7.70 and a pKi ([2]; PPARg Ki) of 7.19.

With `Cc1oc(-c2ccccc2)nc1CCOc1ccc(CC(Nc2ccccc2C(=O)c2cccc(O)c2)C(=O)O)cc1` (centres unmarked) [Example 97, 2-[2-(3-hydroxy-benzoyl)-phenylamino]-3-{4-[2-(5-methyl-2-phenyl-oxazol-4-yl)-ethoxy]-phenyl}-propionic acid] the pEC50 [1] was 7.70 and the pKi ([2]; PPARg Ki) was 8.30.

Work on `Cc1cccc(C(=O)c2ccccc2NC(Cc2ccc(OCCN(C)c3nc4ccccc4o3)cc2)C(=O)O)c1` (centres unmarked) [Example 80] yielded a pEC50 [1] of 8.00 and a pKi ([2]; PPARg Ki) of 8.00.

In the case of `CN(CCOc1ccc(CC(Nc2c(C(=O)C3CCCCC3)cnn2C)C(=O)O)cc1)c1nc2ccccc2o1` (centres unmarked) [Example 51, 3-{4-[2-(Benzoxazol-2-yl-methyl-amino)-ethoxy]-phenyl}-2-(4-cyclohexanecarbonyl-2-methyl-2H-pyrazol-3-ylamino)-propionic acid], the pEC50 [1] was 6.46 and the pKi ([2]; PPARg Ki) was 6.85.

Work on `O=C(c1ccccc1)c1ccccc1NC(Cc1ccc(OC[C@@H]2CCCN2c2nc3ccccc3o2)cc1)C(=O)O` (some centres unmarked) [Example 23] yielded a pEC50 [1] of 9.00 and a pKi ([2]; PPARg Ki) of 7.30.

Work on `COC(=O)c1ccccc1N[C@@H](Cc1ccc(OCCSc2ccc(Cl)cc2)cc1)C(=O)O` [Example 46, 2-(1-Carboxy-2-{4-[2-(4-clhorophenylsulfanyl)-ethoxy]-phenyl}-ethylamino)-benzoic acid methyl ester] yielded a pEC50 [1] of 6.05 and a pKi ([2]; PPARg Ki) of 6.12.

With `COC(=O)[C@H](Cc1ccc(OCc2ccccc2)cc1)NC(C)=CC(=O)c1ccccc1` [Example 2, 3-(4-Benzyloxy-phenyl)-2(S)-(1-methyl-3-oxo-3-phenyl-propenylamino)-propionic acid methyl ester] the “PPARg Fold. Act.” value [1] was 23, the pEC50 [1] was 7.00 and the pKi ([2]; PPARg Ki) was 6.00.

`O=C(c1ccccc1)c1ccccc1NC(Cc1ccc(OC2CCN(c3nc4ccccc4o3)C2)cc1)C(=O)O` (centres unmarked) [Example 55, 3-[4-(1-Benzoxazol-2-yl-pyrrolidin-3-yloxy)-phenyl]-2-(2-benzoyl-phenylamino)-propionic acid] showed a pEC50 [1] of 6.34 and a pKi ([2]; PPARg Ki) of 5.85.

`CN(CCOc1ccc(CC(Cc2ccccc2Br)C(=O)O)cc1)c1nc2ccccc2o1` (centres unmarked) [Example 27, 3-{4-[2-(Benzoxazol-2-yl-methyl-amino)-ethoxy]-phenyl}-2-(2-bromo-benzyl)-propionic acid trifluoroacetate] showed a pEC50 [1] of 6.40 and a pKi ([2]; PPARg Ki) of 6.52.

`CN(CCOc1ccc(CC(Nc2sccc2C(=O)c2ccccc2)C(=O)O)cc1)c1nc2ccccc2o1` (centres unmarked) [Example 52, 3-{4-[2-(Benzoxazol-2-yl-methyl-amino)-ethoxy]-phenyl}-2-(3-benzoyl-thiophene-2-ylamino)-propionic acid] was tested, and the pEC50 [1] was 7.10 and the pKi ([2]; PPARg Ki) was 7.00.
